Laboratory results taken from patent publication US20230278972A1, “SUBSTITUTED HALOALKYL SULFONANILIDE HERBICIDES” (FMC Corporation, priority 2020, published 2023).

Tests used:
Assay type in all cases: in vivo
[1] = system: ragweed (common ragweed, Ambrosia artemisiifolia); assay: Test A preemergence, ragweed; conditions: Preemergence; for Ragweed plant response rating: 125 g ai/ha, visual injury on 0 to 100 scale (0 no effect, 100 complete control), approximately 10 days; for Plant response rating, Ragweed: 500 g ai/ha, 0 to 100 scale (0 no effect, 100 complete control)
Method in brief: (§1)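 Test chemicals, formulated in a non-phytotoxic solvent mixture with surfactant, were sprayed postemergence on plants 2 to 10 cm tall at the one- to two-leaf stage. Preemergence treatment was a directed soil spray onto freshly seeded pots. Both used a loam soil and sand blend.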

[2] = system: wheat (Triticum aestivum); assay: Test A postemergence, wheat; conditions: Postemergence, 0 to 100 scale (0 no effect, 100 complete control); for Wheat plant response rating: visual injury vs untreated controls after approx. 10 days
Method in brief: (§2)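 Seeds are sown in loam mixed with sand and sprayed on the soil surface right after planting for the preemergence test. Postemergence pots are sprayed once seedlings reach 2 to 10 cm at the one- to two-leaf stage. The same surfactant-containing, non-phytotoxic solvent formulation serves both.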

kochia (Bassia scoparia) [3] = assay: Test A postemergence, kochia; conditions: Postemergence, 0 to 100 scale (0 no effect, 100 complete control); for Kochia plant response rating: visual injury vs untreated controls after approx. 10 days
Method in brief: as §1

[4] = system: Foxtail, Giant (giant foxtail, Setaria faberi); assay: Test A preemergence, Foxtail, Giant; conditions: Preemergence; for Foxtail, Giant plant response rating: 125 g ai/ha, visual injury on 0 to 100 scale (0 no effect, 100 complete control), approximately 10 days; for Plant response rating, Foxtail, Giant: 500 g ai/ha, 0 to 100 scale (0 no effect, 100 complete control)
Method in brief: as §1

kochia (Bassia scoparia) [5] = assay: Test A preemergence, kochia; conditions: Preemergence; for Kochia plant response rating: 125 g ai/ha, visual injury on 0 to 100 scale (0 no effect, 100 complete control), approximately 10 days; for Plant response rating, Kochia: 500 g ai/ha, 0 to 100 scale (0 no effect, 100 complete control)
Method in brief: as §1

[6] = system: barnyardgrass (Echinochloa crus-galli); assay: Test A postemergence, barnyardgrass; conditions: Postemergence, 0 to 100 scale (0 no effect, 100 complete control); for Barnyardgrass plant response rating: visual injury vs untreated controls after approx. 10 days
Method in brief: as §2

[7] = system: pigweed (Amaranthus retroflexus); assay: Test A preemergence, pigweed; conditions: for Pigweed plant response rating: 125 g ai/ha, visual injury on 0 to 100 scale (0 no effect, 100 complete control), approximately 10 days; for Plant response rating, Pigweed: 500 g ai/ha, 0 to 100 scale (0 no effect, 100 complete control)
Method in brief: as §2

[8] = system: Ryegrass, Italian (Italian ryegrass, Lolium multiflorum); assay: Test A postemergence, Ryegrass, Italian; conditions: Postemergence, 0 to 100 scale (0 no effect, 100 complete control); for Ryegrass, Italian plant response rating: visual injury vs untreated controls after approx. 10 days
Method in brief: as §1

corn (Zea mays) = assay: Test A postemergence, corn; conditions: Postemergence, 0 to 100 scale (0 no effect, 100 complete control); for Corn plant response rating: visual injury vs untreated controls after approx. 10 days
Method in brief: as §1

[9] = system: ragweed (common ragweed, Ambrosia artemisiifolia); assay: Test A postemergence, ragweed; conditions: Postemergence, 0 to 100 scale (0 no effect, 100 complete control); for Ragweed plant response rating: visual injury vs untreated controls after approx. 10 days
Method in brief: as §1

[10] = system: barnyardgrass (Echinochloa crus-galli); assay: Test A preemergence, barnyardgrass; conditions: Preemergence; for Barnyardgrass plant response rating: 125 g ai/ha, visual injury on 0 to 100 scale (0 no effect, 100 complete control), approximately 10 days; for Plant response rating, Barnyardgrass: 500 g ai/ha, 0 to 100 scale (0 no effect, 100 complete control)
Method in brief: as §1

[11] = system: Foxtail, Giant (giant foxtail, Setaria faberi); assay: Test A postemergence, Foxtail, Giant; conditions: Postemergence, 0 to 100 scale (0 no effect, 100 complete control); for Foxtail, Giant plant response rating: visual injury vs untreated controls after approx. 10 days
Method in brief: as §1

[12] = system: galium (catchweed bedstraw, Galium aparine); assay: Test A postemergence, galium; conditions: Postemergence, 0 to 100 scale (0 no effect, 100 complete control); for Galium plant response rating: visual injury vs untreated controls after approx. 10 days
Method in brief: as §2

[13] = system: Ryegrass, Italian (Italian ryegrass, Lolium multiflorum); assay: Test A preemergence, Ryegrass, Italian; conditions: Preemergence; for Ryegrass, Italian plant response rating: 125 g ai/ha, visual injury on 0 to 100 scale (0 no effect, 100 complete control), approximately 10 days; for Plant response rating, Ryegrass, Italian: 500 g ai/ha, 0 to 100 scale (0 no effect, 100 complete control)
Method in brief: as §1

[14] = system: blackgrass (Alopecurus myosuroides); assay: Test A postemergence, blackgrass; conditions: Postemergence, 0 to 100 scale (0 no effect, 100 complete control); for Blackgrass plant response rating: visual injury vs untreated controls after approx. 10 days
Method in brief: as §1

[15] = system: pigweed (Amaranthus retroflexus); assay: Test A postemergence, pigweed; conditions: Postemergence, 0 to 100 scale (0 no effect, 100 complete control); for Pigweed plant response rating: visual injury vs untreated controls after approx. 10 days
Method in brief: as §1

[16] = 125 g ai/ha, visual injury approx. 10 days
[17] = 500 g ai/ha, visual injury, approx. 10 days

Compound | Ragweed plant response rating [1] | Plant response rating, Ragweed [1] | Plant response rating, Wheat [2, 16] | Plant response rating, Kochia (kochia (Bassia scoparia) [3]; [16]) | Foxtail, Giant plant response rating [4] | Plant response rating, Foxtail, Giant [4] | Kochia plant response rating (kochia (Bassia scoparia) [5]) | Plant response rating, Kochia (kochia (Bassia scoparia) [5]) | Plant response rating, Barnyardgrass [6, 16] | Pigweed plant response rating [7] | Plant response rating, Pigweed [7] | Plant response rating, Ryegrass, Italian [8, 16] | Plant response rating, Corn (corn (Zea mays); [16]) | Plant response rating, Ragweed [9, 16] | Barnyardgrass plant response rating [10] | Plant response rating, Barnyardgrass [10] | Plant response rating, Foxtail, Giant [11, 16] | Plant response rating, Galium [12, 16] | Ryegrass, Italian plant response rating [13] | Plant response rating, Ryegrass, Italian [13] | other results
CCn1cc(-c2cc(N(S(=O)(=O)C(F)(F)F)S(=O)(=O)C(F)(F)F)c(C)cc2C)c(=O)n(CC)c1=O [Compound 43] | 0 | 0 | 70 | 20 | 100 | 100 | 0 | 90 | 90 | 20 | 60 | 20 | 10 | 60 | 90 | 100 | 90 | 70 | 100 | 100 | Plant response rating, Wheat [2, 17]: 70; Plant response rating, Kochia (kochia (Bassia scoparia) [3]; [17]): 40; Plant response rating, Barnyardgrass [6, 17]: 90; Plant response rating, Ryegrass, Italian [8, 17]: 50; Plant response rating, Corn (corn (Zea mays); [17]): 80; Plant response rating, Ragweed [9, 17]: 60; Plant response rating, Foxtail, Giant [11, 17]: 90; Plant response rating, Galium [12, 17]: 90; Plant response rating, Blackgrass [14, 16]: 70; Plant response rating, Blackgrass [14, 17]: 90; Plant response rating, Pigweed [15, 16]: 80; Plant response rating, Pigweed [15, 17]: 80
CCn1cc(-c2cc(NS(=O)(=O)C(F)(F)F)c(C)cc2C)c(=O)n(CC)c1=O [Compound 44] | 0 | 10 | 70 | 10 | 100 | 100 | 0 | 60 | 90 | 40 | 100 | 30 | 0 | 20 | 100 | 100 | 90 | 80 | 100 | 100 | Wheat plant response rating ([2]; 500 g ai/ha): 70; Kochia plant response rating (kochia (Bassia scoparia) [3]; 500 g ai/ha): 30; Barnyardgrass plant response rating ([6]; 500 g ai/ha): 90; Ryegrass, Italian plant response rating ([8]; 500 g ai/ha): 30; Corn plant response rating (corn (Zea mays); 500 g ai/ha): 70; Ragweed plant response rating ([9]; 500 g ai/ha): 50; Foxtail, Giant plant response rating ([11]; 500 g ai/ha): 90; Galium plant response rating ([12]; 500 g ai/ha): 90; Plant response rating, Blackgrass [14, 16]: 80; Blackgrass plant response rating ([14]; 500 g ai/ha): 90; Plant response rating, Pigweed [15, 16]: 80; Pigweed plant response rating ([15]; 500 g ai/ha): 90
CCn1nc(Cl)cc(-c2cc(N(S(C)(=O)=O)S(=O)(=O)C(F)(F)F)c(C)cc2C)c1=O [Compound 45] | 60 | 80 | 40 | 10 | 100 | 100 | 70 | 100 | 20 | 60 | 90 | 50 | 10 | 20 | 90 | 100 | 0 | 10 | 80 | 100 | Wheat plant response rating ([2]; 500 g ai/ha): 70; Kochia plant response rating (kochia (Bassia scoparia) [3]; 500 g ai/ha): 50; Barnyardgrass plant response rating ([6]; 500 g ai/ha): 70; Ryegrass, Italian plant response rating ([8]; 500 g ai/ha): 90; Corn plant response rating (corn (Zea mays); 500 g ai/ha): 30; Ragweed plant response rating ([9]; 500 g ai/ha): 70; Foxtail, Giant plant response rating ([11]; 500 g ai/ha): 60; Galium plant response rating ([12]; 500 g ai/ha): 40; Plant response rating, Blackgrass [14, 16]: 0; Blackgrass plant response rating ([14]; 500 g ai/ha): 60; Plant response rating, Pigweed [15, 16]: 30; Pigweed plant response rating ([15]; 500 g ai/ha): 70
Cc1cc(C)c(N(S(C)(=O)=O)S(=O)(=O)C(F)(F)F)cc1-c1cc(Cl)nn(C)c1=O [Compound 46] | 0 | 0 | 0 | 0 | 90 | 90 | 0 | 0 | 0 | 0 | 50 | 0 | 0 | 0 | 0 | 70 | 0 | 0 | 50 | 80 | Wheat plant response rating ([2]; 500 g ai/ha): 50; Kochia plant response rating (kochia (Bassia scoparia) [3]; 500 g ai/ha): 0; Barnyardgrass plant response rating ([6]; 500 g ai/ha): 0; Ryegrass, Italian plant response rating ([8]; 500 g ai/ha): 0; Corn plant response rating (corn (Zea mays); 500 g ai/ha): 0; Ragweed plant response rating ([9]; 500 g ai/ha): 0; Foxtail, Giant plant response rating ([11]; 500 g ai/ha): 0; Galium plant response rating ([12]; 500 g ai/ha): 0; Plant response rating, Blackgrass [14, 16]: 0; Blackgrass plant response rating ([14]; 500 g ai/ha): 0; Plant response rating, Pigweed [15, 16]: 0; Pigweed plant response rating ([15]; 500 g ai/ha): 0
Cc1cc(C)c(N(S(=O)(=O)C(F)(F)F)S(=O)(=O)C(F)(F)F)cc1-c1cc(C(C)C)nn(C)c1=O [Compound 47] | 20 | 60 | 50 | 0 | 10 | 90 | 0 | 0 | 50 | 0 | 0 | 40 | 10 | 70 | 50 | 90 | 40 | 30 | 50 | 100 | Wheat plant response rating ([2]; 500 g ai/ha): 60; Kochia plant response rating (kochia (Bassia scoparia) [3]; 500 g ai/ha): 0; Barnyardgrass plant response rating ([6]; 500 g ai/ha): 80; Ryegrass, Italian plant response rating ([8]; 500 g ai/ha): 80; Corn plant response rating (corn (Zea mays); 500 g ai/ha): 0; Ragweed plant response rating ([9]; 500 g ai/ha): 80; Foxtail, Giant plant response rating ([11]; 500 g ai/ha): 80; Galium plant response rating ([12]; 500 g ai/ha): 40; Plant response rating, Blackgrass [14, 16]: 10; Blackgrass plant response rating ([14]; 500 g ai/ha): 50; Plant response rating, Pigweed [15, 16]: 0; Pigweed plant response rating ([15]; 500 g ai/ha): 0
